Values quoted from earlier work, collected in patent US20170290285A1, “HIGH REBAUDIOSIDE-C PLANT VARIETAL AND COMPOSITIONS EXTRACTED THEREFROM WITH HIGH REBAUDIOSIDE-C AND TOTAL STEVIOL GLYCOSIDE CONTENT” (GLG Life Tech Corporation, priority 2014, published 2017).

Assays:
[1] = heating at high temperature, cooking or barbecuing
[2] = for Relative sweetness: Table 1

Compound: C[C@H](CC[C@@H](O[C@@H]1O[C@H](CO[C@@H]2O[C@H](CO)[C@@H](O)[C@H](O)[C@H]2O)[C@@H](O)[C@H](O)[C@H]1O[C@@H]1O[C@H](CO)[C@@H](O)[C@H](O)[C@H]1O)C(C)(C)O)[C@H]1CC[C@@]2(C)[C@@H]3CC=C4[C@@H](CC[C@H](O[C@@H]5O[C@H](CO[C@@H]6O[C@H](CO)[C@@H](O)[C@H](O)[C@H]6O)[C@@H](O)[C@H](O)[C@H]5O)C4(C)C)[C@]3(C)[C@H](O)C[C@]12C [Mogroside V]
- effect of heating on flavor [1]: does not affect the flavor
- sweetness, times that of sugar ([2]; versus sugar, b159): about 300 times

Compound: C=C1C[C@@]23CC[C@H]4[C@@](C)(CCC[C@@]4(C)C(=O)[O-])[C@@H]2CC[C@]1(O[C@@H]1O[C@@H](CO)[C@@H](O)[C@H](O)[C@@H]1O[C@@H]1O[C@@H](CO)[C@@H](O)[C@H](O)[C@@H]1O)C3.[Na+] [Stevlolbioside]
- Relative sweetness [2]: 90
- Solubility in water, %: 0.03%

Compound: Rebaudioside C
- sweetness, × of sugar ([2]; versus sugar, list b13-b15): 150-200 × of sugar

Compound: Rubusoside
- Relative sweetness [2]: 110
